The test deals with T1, Putative farnesyl pyrophosphate synthase (Cryptosporidium parvum (strain Iowa II), UniProt Q5CR09).
T1 sequence (Q5CR09 whole entry): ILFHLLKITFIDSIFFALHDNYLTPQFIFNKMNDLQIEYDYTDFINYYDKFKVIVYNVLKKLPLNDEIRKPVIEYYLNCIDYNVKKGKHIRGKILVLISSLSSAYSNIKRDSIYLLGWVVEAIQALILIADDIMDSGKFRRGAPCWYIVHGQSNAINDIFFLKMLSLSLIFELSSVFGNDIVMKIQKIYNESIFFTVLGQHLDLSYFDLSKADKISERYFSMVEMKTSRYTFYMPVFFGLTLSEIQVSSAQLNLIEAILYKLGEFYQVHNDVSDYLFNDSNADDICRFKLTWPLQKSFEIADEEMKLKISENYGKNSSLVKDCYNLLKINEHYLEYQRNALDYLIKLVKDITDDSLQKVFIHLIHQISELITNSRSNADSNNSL
Put plainly: Enzymatic Assay. To be noted: pH 7.7; 37 °C. How it is done: Enzymatic assay using CpNPPPS was assayed using Reed and Rilling method with some modification.

Molecules are shown by their SMILES.

In the case of `O=P(O)(O)C(O)(Cn1ccnc1)P(=O)(O)O`, the IC50 turned out to be 30.1 nM and the Ki was 0.05 nM.

In turn, `O=P(O)(O)C(O)(Cc1cccnc1)P(=O)(O)O` [JMC515594 Compound 64] registered an IC50 of 45.7 nM and a Ki of 0.38 nM.

These data come from BindingDB's records for doi:10.1016/j.chembiol.2008.10.017 (University of Toronto, 2008).
